Laboratory results: patent US5998654A, “Retinoic acid receptor antagonist compounds and methods” (Ligand Pharmaceuticals Incorporated, priority 1997, dated 1999)

Assays:
RARβ = target: T1, RARβ (Homo sapiens, UniProt P10826); assay: RAR binding, RARβ; details: Kd from IC50 by Cheng-Prussof equation
T1 sequence (P10826 1-448 isoform P10826-2): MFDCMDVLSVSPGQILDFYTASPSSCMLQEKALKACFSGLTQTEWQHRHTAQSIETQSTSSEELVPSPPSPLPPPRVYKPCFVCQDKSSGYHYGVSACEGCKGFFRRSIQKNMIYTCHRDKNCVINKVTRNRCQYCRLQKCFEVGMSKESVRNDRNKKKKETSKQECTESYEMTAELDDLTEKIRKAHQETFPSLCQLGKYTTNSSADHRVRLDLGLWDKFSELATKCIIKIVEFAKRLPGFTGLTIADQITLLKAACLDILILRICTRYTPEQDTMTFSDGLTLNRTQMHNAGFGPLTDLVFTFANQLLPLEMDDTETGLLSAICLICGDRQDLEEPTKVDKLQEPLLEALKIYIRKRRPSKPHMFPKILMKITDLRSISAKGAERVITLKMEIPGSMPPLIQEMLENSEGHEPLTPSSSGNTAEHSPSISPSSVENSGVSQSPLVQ
Procedure: (§1) Non-specific binding was defined as that binding remaining in the presence of 500 nM of the appropriate unlabelled compound. At the end of the incubation period, bound from free ligand were separated. The amount of bound tritiated retinoids was determined by liquid scintillation counting of an aliquot (700 μL) of the supernatant fluid or the hydroxylapatite pellet.
(§2) After correcting for non-specific binding, IC50 values were determined. […] The IC50 value was determined graphically from a log-logit plot of the data. The Kd values were determined by application of the Cheng-Prussof equation to the IC50 values, the labeled ligand concentration and the Kd of the labeled ligand.

RARα [1] = target: T2, RARα (Homo sapiens, UniProt P10276); assay: RAR binding, RARα; details: Kd from IC50 by Cheng-Prussof equation
T2 sequence (P10276 1-462): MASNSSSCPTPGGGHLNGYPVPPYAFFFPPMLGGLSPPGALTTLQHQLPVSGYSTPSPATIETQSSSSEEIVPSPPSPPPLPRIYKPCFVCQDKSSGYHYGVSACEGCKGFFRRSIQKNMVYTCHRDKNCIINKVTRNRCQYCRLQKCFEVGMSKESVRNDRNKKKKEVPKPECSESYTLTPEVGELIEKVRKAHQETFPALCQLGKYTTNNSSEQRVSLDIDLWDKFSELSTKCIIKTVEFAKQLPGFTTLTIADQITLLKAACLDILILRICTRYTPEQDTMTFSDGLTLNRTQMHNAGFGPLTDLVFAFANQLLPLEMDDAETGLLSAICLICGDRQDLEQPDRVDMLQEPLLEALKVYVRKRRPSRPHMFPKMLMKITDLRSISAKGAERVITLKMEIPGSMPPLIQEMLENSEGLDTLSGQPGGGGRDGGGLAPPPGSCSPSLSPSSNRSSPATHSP
Procedure: as §1, §2

RARα [2] = target: T2, RARα; assay: co-transfection assay, agonist activity on RARα; format: cell-based; parameters: expressed in transfected cells; host or cells: CV-1 cells (African green monkey kidney); details: CV-1 cells; read-out: EC50 agonist potency, RARα
From the text: This assay is described in further detail in U.S. Pat. Nos. 4,981,784 and 5,071,773, the disclosures of which are incorporated herein by reference.
In the co-transfection assay, a cloned cDNA for an IR (e.g., human RARα:, RARβ, RXRγ) under the control of a constitutive promoter (e.g., the SV 40 promoter) is introduced by transfection (a procedure to induce cells to take up foreign genes) into a background cell substantially devoid of endogenous IRs. This introduced gene directs the recipient cells to make the IR protein of interest. A second gene is also introduced (co-transfected) into the same cells in conjunction with the IR gene. This second gene, comprising the cDNA for a reporter protein, such as firefly luciferase (LUC), is controlled by an appropriate hormone responsive promoter containing a hormone response element (HRE). This reporter plasmid functions as a reporter for the transcription-modulating activity of the target IR. Thus, the reporter acts as a surrogate for the products (mRNA then protein) normally expressed by a gene under control of the target receptor and its native hormone.
The co-transfection assay can detect small molecule agonists or antagonists of target IRs. Exposing the transfected cells to an agonist ligand compound increases reporter activity in the transfected cells. This activity can be conveniently measured, e.g., by increasing luciferase production, which reflects compound-dependent, IR-mediated increases in reporter transcription. To detect antagonists, the co-transfection assay is carried out in the presence of a constant concentration of an agonist to the target IR (e.g., all-trans retinoic acid for RARα) known to induce a defined reporter signal. Increasing concentrations of a suspected antagonist will decrease the reporter signal (e.g., luciferase production). The co-transfection assay is therefore useful to detect both agonists and antagonists of specific IRs. Furthermore, it determines not only whether a compound interacts with a particular IR, but whether this interaction mimics (agonizes) or blocks (antagonizes) the effects of the native regulatory molecules on target gene expression, as well as the specificity and strength of this interaction.
CV-1 cells (African green monkey kidney fibroblasts) were cultured in the presence of Dulbecco's Modified Eagle Medium (DMEM) supplemented with 10% charcoal resin-stripped fetal bovine serum then transferred to 96-well microtiter plates one day prior to transfection. […]

Row | Structure (SMILES) | Kd (RARβ) | Kd (RARα [1]) | EC50 (RARα [2])
1 | CCCCOc1c(C(C)(C)C)cc(/C(C)=C/C=C/C(C)=C/C(=O)O)cc1C(C)(C)C [Compound 7, 2E, 4E, 6E-[7-(3,5-Di-t-butyl-4-n-butoxyphenyl)-3-methyl]-octa-2,4,6-trienoic acid] | 5 nM | 3 nM | > 10000 nM
2 | CCCCCOc1c(C(C)(C)C)cc(/C(C)=C/C=C/C(C)=C/C(=O)O)cc1C(C)(C)C [Compound 9, 2E, 4E, 6E-[7-(3,5-Di-t-butyl-4-n-pentoxyphenyl)-3-methyl]-octa-2,4,6-trienoic acid] | 5 nM | 9 nM | > 10000 nM
3 | CCCOc1c(C(C)(C)C)cc(/C(C)=C/C=C/C(C)=C/C(=O)O)cc1C(C)(C)C [Compound 8, 2E, 4E, 6E-[7-(3,5-Di-t-butyl-4-n-propoxyphenyl)-3-methyl]-octa-2,4,6-trienoic acid] | 1 nM | 2 nM | > 10000 nM
4 | C=C(c1ccccc1)c1cc(/C(C)=C/C=C/C(C)=C/C(=O)O)cc(C(C)(C)C)c1 [Compound 17, (2E,4E,6E)-7-[3-t-butyl-5-(1-phenyl-vinyl)-phenyl]-3-methyl-octa-2,4,6-trienoic acid] | 3 nM | 2 nM | > 10000 nM
